In PubChem BioAssay (NCI):
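GI50 marks 50% less growth. TGI denotes the concentration required for complete inhibition of growth.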

What was measured:
Experiment in all cases: NCI anticancer screen, dose series, 384-well format
[1] = test system: OVCAR-3 ovarian
[2] = test system: SF-539 CNS
[3] = test system: COLO 205 colon
[4] = test system: BT-549 breast
[5] = test system: SR leukemia
[6] = test system: MALME-3M melanoma
[7] = test system: OVCAR-5 ovarian
[8] = test system: SK-MEL-5 melanoma
[9] = test system: K-562 leukemia
[10] = test system: PC-3 prostate
[11] = test system: NCI-H23 lung
[12] = test system: SK-MEL-28 melanoma
[13] = test system: M14 melanoma
[14] = test system: OVCAR-4 ovarian
[15] = test system: SN12C renal
[16] = test system: ACHN renal
[17] = test system: UACC-62 melanoma
[18] = test system: TK-10 renal
[19] = test system: MDA-MB-435 melanoma
[20] = test system: A498 renal
[21] = test system: SF-268 CNS
[22] = test system: HOP-92 NSCLC
[23] = test system: SNB-75 CNS
[24] = test system: SW-620 colon
[25] = test system: EKVX NSCLC
[26] = test system: NCI-H460 NSCLC
[27] = test system: CAKI-1 renal
[28] = test system: MCF7 breast
[29] = test system: NCI-H322M lung
[30] = test system: UO-31 renal
[31] = test system: T-47D breast
[32] = test system: MDA-MB-231 breast
[33] = test system: OVCAR-8 ovarian
[34] = test system: MDA-MB-468 breast
[35] = test system: HOP-62 NSCLC
[36] = test system: LOX IMVI melanoma
[37] = test system: HL-60(TB) leukemia
[38] = test system: SF-295 CNS
[39] = test system: KM12 colon
[40] = test system: CCRF-CEM leukemia
[41] = test system: NCI-H522 lung
[42] = test system: NCI/ADR-RES ovarian
[43] = test system: SNB-19 CNS
[44] = test system: SK-OV-3 ovarian
[45] = test system: MOLT-4 leukemia
[46] = test system: RPMI-8226 leukemia
[47] = test system: NCI-H226 lung
[48] = test system: UACC-257 melanoma
[49] = test system: HCC-2998 colon
[50] = test system: RXF 393 renal
[51] = test system: 786-0 renal
[52] = test system: IGROV1 ovarian
[53] = test system: HS 578T breast
[54] = test system: HCT-15 colon
[55] = test system: HT29 colon
[56] = test system: A549 NSCLC
[57] = test system: DU-145 prostate

C[C@@H]1OCC2(CCN(c3cnc(Sc4ccnc(N)c4Cl)c(N)n3)CC2)[C@@H]1N
GI50 [1]: 77.9 µM | TGI [1]: > 100 µM | GI50 [2]: 34.7 µM | TGI [2]: > 100 µM | GI50 [3]: > 100 µM | TGI [3]: > 100 µM | GI50 [4]: 35.1 µM | TGI [4]: > 100 µM | GI50 [5]: 0.519 µM | TGI [5]: 13.4 µM | GI50 [6]: > 100 µM | TGI [6]: > 100 µM | GI50 [7]: > 100 µM | TGI [7]: > 100 µM | GI50 [8]: > 100 µM | TGI [8]: > 100 µM | GI50 [9]: 0.148 µM | TGI [9]: > 100 µM | GI50 [10]: > 100 µM | TGI [10]: > 100 µM | GI50 [11]: 0.0797 µM | TGI [11]: 44.2 µM | GI50 [12]: > 100 µM | TGI [12]: > 100 µM | GI50 [13]: > 100 µM | TGI [13]: > 100 µM | GI50 [14]: > 100 µM | TGI [14]: > 100 µM | GI50 [15]: 3.87 µM | TGI [15]: > 100 µM | GI50 [16]: 4.99 µM | TGI [16]: > 100 µM | GI50 [17]: > 100 µM | TGI [17]: > 100 µM | GI50 [18]: 3.58 µM | TGI [18]: > 100 µM | GI50 [19]: > 100 µM | TGI [19]: > 100 µM | GI50 [20]: 4.18 µM | TGI [20]: > 100 µM | GI50 [21]: > 100 µM | TGI [21]: > 100 µM | GI50 [22]: 0.0569 µM | TGI [22]: 1.05 µM | GI50 [23]: 51.2 µM | TGI [23]: > 100 µM | GI50 [24]: > 100 µM | TGI [24]: > 100 µM | GI50 [25]: 16.5 µM | TGI [25]: > 100 µM | GI50 [26]: > 100 µM | TGI [26]: > 100 µM | GI50 [27]: 0.426 µM | TGI [27]: > 100 µM | GI50 [28]: > 100 µM | TGI [28]: > 100 µM | GI50 [29]: 0.234 µM | TGI [29]: > 100 µM | GI50 [30]: 27.6 µM | TGI [30]: > 100 µM | GI50 [31]: 29.3 µM | TGI [31]: > 100 µM | GI50 [32]: > 100 µM | TGI [32]: > 100 µM | GI50 [33]: 44.3 µM | TGI [33]: > 100 µM | GI50 [34]: 0.0533 µM | TGI [34]: 0.355 µM | GI50 [35]: > 100 µM | TGI [35]: > 100 µM | GI50 [36]: > 100 µM | TGI [36]: > 100 µM | GI50 [37]: 65.1 µM | TGI [37]: > 100 µM | GI50 [38]: > 100 µM | TGI [38]: > 100 µM | GI50 [39]: 0.621 µM | TGI [39]: > 100 µM | GI50 [40]: 32 µM | TGI [40]: > 100 µM | GI50 [41]: 1.44 µM | TGI [41]: > 100 µM | GI50 [42]: 17.7 µM | TGI [42]: > 100 µM | GI50 [43]: > 100 µM | TGI [43]: > 100 µM | GI50 [44]: 25.2 µM | TGI [44]: > 100 µM | GI50 [45]: 35.9 µM | TGI [45]: > 100 µM | GI50 [46]: 21 µM | TGI [46]: > 100 µM | GI50 [47]: 1.18 µM | TGI [47]: > 100 µM | GI50 [48]: > 100 µM | TGI [48]: > 100 µM | GI50 [49]: > 100 µM | TGI [49]: > 100 µM | GI50 [50]: > 100 µM | TGI [50]: > 100 µM | GI50 [51]: > 100 µM | TGI [51]: > 100 µM | GI50 [52]: 0.918 µM | TGI [52]: > 100 µM | GI50 [53]: > 100 µM | TGI [53]: > 100 µM | GI50 [54]: > 100 µM | TGI [54]: > 100 µM | GI50 [55]: > 100 µM | TGI [55]: > 100 µM | GI50 [56]: > 100 µM | TGI [56]: > 100 µM | GI50 [57]: > 100 µM | TGI [57]: > 100 µM
